Source: ChEMBL document CHEMBL3779837, “Inhibiting the Inflammasome: A Chemical Perspective” (J Med Chem, 2016)

Columns and labels:
Caspase-1 = molecular target: T1, Caspase-1 (Homo sapiens, UniProt P29466); test: Inhibition of caspase-1 in LPS stimulated human PMBC cells after 2 hrs by ELISA analysis; assay type: cell-based
T1 sequence (P29466 whole entry): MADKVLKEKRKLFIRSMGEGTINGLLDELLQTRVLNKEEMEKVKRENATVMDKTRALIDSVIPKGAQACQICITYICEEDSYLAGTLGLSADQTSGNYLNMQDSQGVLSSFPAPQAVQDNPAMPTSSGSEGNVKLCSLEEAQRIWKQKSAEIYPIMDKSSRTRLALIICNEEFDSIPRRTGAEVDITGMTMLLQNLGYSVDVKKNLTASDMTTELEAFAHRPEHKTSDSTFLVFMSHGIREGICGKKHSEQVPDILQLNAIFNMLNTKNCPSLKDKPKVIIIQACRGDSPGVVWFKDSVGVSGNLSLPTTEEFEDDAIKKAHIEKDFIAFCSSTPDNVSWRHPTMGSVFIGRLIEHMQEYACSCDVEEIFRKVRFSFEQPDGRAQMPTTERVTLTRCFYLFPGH

Toll-like receptor 4 = molecular target: T2, Toll-like receptor 4 (Mus musculus, UniProt Q9QUK6); test: Inhibition of TLR4 in LPS/INFgamma stimulated mouse peritoneal macrophages assessed as inhibition of IL1-beta after 20 hrs by ELISA analysis
T2 sequence (Q9QUK6 whole entry): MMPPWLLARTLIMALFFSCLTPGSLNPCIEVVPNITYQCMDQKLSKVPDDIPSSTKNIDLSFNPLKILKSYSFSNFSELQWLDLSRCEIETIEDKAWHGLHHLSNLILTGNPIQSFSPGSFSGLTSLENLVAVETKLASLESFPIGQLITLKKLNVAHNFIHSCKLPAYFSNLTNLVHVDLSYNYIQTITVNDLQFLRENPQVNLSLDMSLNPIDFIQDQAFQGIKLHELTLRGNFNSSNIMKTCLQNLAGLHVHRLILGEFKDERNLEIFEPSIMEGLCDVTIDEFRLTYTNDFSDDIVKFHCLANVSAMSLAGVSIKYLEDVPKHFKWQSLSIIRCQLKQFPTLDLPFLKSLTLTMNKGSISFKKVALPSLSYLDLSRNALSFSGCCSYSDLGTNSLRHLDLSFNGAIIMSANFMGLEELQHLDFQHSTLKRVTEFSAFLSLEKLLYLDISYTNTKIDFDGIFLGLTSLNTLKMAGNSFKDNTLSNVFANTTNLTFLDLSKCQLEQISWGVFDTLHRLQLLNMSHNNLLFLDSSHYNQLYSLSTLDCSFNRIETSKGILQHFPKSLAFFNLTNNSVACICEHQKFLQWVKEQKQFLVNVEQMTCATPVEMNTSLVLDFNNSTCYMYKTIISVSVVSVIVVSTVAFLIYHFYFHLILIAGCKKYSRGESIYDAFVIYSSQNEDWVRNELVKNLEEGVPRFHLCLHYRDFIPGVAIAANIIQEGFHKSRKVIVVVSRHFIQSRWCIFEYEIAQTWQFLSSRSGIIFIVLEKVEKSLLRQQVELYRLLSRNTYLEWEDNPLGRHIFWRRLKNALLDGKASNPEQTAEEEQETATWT

THP-1 = test: Inhibition of caspase-1-mediated IL-1beta production in LPS/ATP induced human THP1 cells by ELISA analysis; assay type: functional, cell-based
[1] = Inhibition of organic anion transporter (unknown origin); design: species or system Homo sapiens
clinical = details: human, plasma, po, 500 mg
Pannexin-1 = Pannexin-1 (Homo sapiens, UniProt Q96RD7); test: Binding affinity to pannexin 1 channel (unknown origin)
[2] = molecular target: NACHT, LRR and PYD domains-containing protein 3 (Mus musculus, UniProt Q8R4B8); test: Inhibition of NLRP3 in LPS stimulated mouse BMDM cells after 15 mins followed by addition of ATP by ELISA analysis; assay type: cell-based
[3] = Half life in C57BL/6 mouse at 3 mg/kg, iv administered as single dose; assay type: ADME, organism-based; details: in vivo
[4] = Oral bioavailability in single dosed C57BL/6 mouse at 20 mg/kg; assay type: ADME, organism-based; details: in vivo

NACHT, LRR and PYD domains-containing protein 3, sequence (Q8R4B8 whole entry, the tested form may be a part): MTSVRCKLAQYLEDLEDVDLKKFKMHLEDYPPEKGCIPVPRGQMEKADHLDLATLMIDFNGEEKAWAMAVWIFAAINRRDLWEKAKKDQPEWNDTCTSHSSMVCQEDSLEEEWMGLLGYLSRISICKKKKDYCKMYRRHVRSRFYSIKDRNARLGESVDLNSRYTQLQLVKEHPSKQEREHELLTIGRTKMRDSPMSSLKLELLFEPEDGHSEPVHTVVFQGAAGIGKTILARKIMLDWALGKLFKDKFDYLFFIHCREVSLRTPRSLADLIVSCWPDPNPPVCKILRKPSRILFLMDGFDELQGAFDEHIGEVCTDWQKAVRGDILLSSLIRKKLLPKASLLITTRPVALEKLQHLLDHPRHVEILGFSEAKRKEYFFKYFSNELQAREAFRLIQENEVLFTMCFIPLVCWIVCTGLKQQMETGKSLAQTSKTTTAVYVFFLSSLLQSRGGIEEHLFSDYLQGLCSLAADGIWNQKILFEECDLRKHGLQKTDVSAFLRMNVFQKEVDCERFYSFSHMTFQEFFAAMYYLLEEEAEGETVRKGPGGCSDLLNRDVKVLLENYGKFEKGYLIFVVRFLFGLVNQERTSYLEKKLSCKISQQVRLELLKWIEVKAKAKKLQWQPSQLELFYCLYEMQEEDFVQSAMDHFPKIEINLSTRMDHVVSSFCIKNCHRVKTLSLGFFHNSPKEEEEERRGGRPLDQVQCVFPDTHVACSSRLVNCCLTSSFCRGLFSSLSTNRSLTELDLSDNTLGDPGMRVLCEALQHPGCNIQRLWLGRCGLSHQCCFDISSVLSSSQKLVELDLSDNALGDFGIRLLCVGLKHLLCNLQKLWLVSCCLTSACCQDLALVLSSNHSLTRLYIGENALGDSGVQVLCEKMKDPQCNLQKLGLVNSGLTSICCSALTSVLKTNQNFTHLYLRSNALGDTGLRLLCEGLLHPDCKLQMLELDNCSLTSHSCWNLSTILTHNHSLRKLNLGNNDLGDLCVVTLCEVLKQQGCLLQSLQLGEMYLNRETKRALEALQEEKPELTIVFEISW
Pannexin-1, sequence (Q96RD7 whole entry, the tested form may be a part): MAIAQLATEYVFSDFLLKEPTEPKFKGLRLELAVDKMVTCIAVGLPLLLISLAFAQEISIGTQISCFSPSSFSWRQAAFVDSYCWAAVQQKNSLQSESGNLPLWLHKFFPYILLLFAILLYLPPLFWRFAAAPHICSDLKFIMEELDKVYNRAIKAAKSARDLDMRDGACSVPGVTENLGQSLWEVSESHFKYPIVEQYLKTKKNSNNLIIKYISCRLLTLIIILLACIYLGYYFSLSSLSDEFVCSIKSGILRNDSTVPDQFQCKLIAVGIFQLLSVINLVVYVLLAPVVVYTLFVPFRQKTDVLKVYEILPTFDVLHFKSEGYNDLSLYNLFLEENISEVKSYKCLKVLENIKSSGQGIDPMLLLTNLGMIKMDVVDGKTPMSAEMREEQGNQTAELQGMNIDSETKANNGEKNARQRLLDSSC

With `CCO[C@@H]1OC(=O)C[C@@H]1NC(=O)[C@@H]1CCCN2C(=O)CC[C@H](NC(=O)c3nccc4ccccc34)C(=O)N12` [PRALNACASAN] as the molecule, how does the IC50 (Caspase-1) read?
The IC50 was 0.42 µM.

For `CCOC(=O)C1=CCCC[C@H]1S(=O)(=O)Nc1ccc(F)cc1Cl` [RESATORVID], which IC50 (Toll-like receptor 4) is on record?
Its IC50 is 0.0057 µM.

With `O=C1C(Br)=C[C@@H](O)[C@H]2O[C@@H]12` as the molecule, how does the IC50 (THP-1) read?
Its IC50 is 0.2 µM.

With `O=C1C(Br)=C[C@H](O)[C@H]2O[C@@H]12` as the molecule, how does the IC50 (THP-1) read?
Its IC50 is 0.17 µM.

Which results are given for `CCCN(CCC)S(=O)(=O)c1ccc(C(=O)O)cc1` [PROBENECID]?
IC50 [1]: < 100 µM; Cmax at 48 h (clinical): 124 µM; IC50 (Pannexin-1): 150 µM

For `O=[N+]([O-])/C=C/c1ccc2c(c1)OCO2`, which IC50 [2] is on record?
The IC50 was 2 µM.

For `O=C[C@H](CC(=O)O)NC(=O)[C@@H]1CCCN2C(=O)CC[C@H](NC(=O)c3nccc4ccccc34)C(=O)N12` [VRT-18858], which IC50 (Caspase-1) is on record?
The IC50 was 0.67 µM.

With `CC(C)(O)c1coc(S(=O)(=O)NC(=O)Nc2c3c(cc4c2CCC4)CCC3)c1` as the molecule, how does the half-life [3] read?
The half-life was 3 h.

What about the bioavailability [4] of the same molecule?
The bioavailability was 68%.

For `O=C1C(Br)=C[C@H](O)[C@@H]2O[C@H]12`, which IC50 (THP-1) is on record?
Its IC50 is 0.28 µM.

With `O=C1C(Br)=C[C@@H](O)[C@@H]2O[C@H]12` as the molecule, how does the IC50 (THP-1) read?
Its IC50 is 0.19 µM.
